# Laboratory results published in paper PMC9712021 (Advances in Pharmacological and Pharmaceutical Sciences, 2022).
# How the values were obtained:
# [1] = system: S. cerevisiae EG110 (Sod2∆); experiment: S. cerevisiae central disc test, oxidative damage, strain Sod2∆; type: cell-based, Saccharomyces cerevisiae
# Description: (§1) The central disc test was done according to the method presented by Islam et al.. Superoxide dismutase (CuZnSOD-Sod1) is a cytosolic enzyme that is faulty in strain EG118, whereas mitochondrial SOD is faulty in strain EG110 (MnSOD-Sod2). The strain EG133 has both Sod1 and Sod2 defects, while EG223 has a cytosolic catalase deficiency (Cat1). While EG103 is a competent strain that is identical to the wild-type (SODWT), EG is a dual isogenic strain for the Sod1 and Cat1 genes.
# [2] = system: S. cerevisiae EG (Sod1∆Cat1∆); experiment: S. cerevisiae central disc test, oxidative damage, strain Sod1∆Cat1∆; type: cell-based, Saccharomyces cerevisiae
# Description: as §1
# mouse erythrocytes = experiment: Hemolytic activity in mice erythrocytes; type: cell-based; conditions: for Hemolysis (%): 37°C, 2 h
# Method: (§2) This test was performed on adult Swiss albino mouse (Mus musculus) erythrocytes. The mouse was collected from the Central Animal House of the Federal University of Piaui, Brazil. It was allowed free access to standard food and water ad libitum and was kept under controlled lighting (12 h dark/light cycles) at 24 ± 2°C. Blood was collected from the retro-orbital plexus of the mouse (male, 24 gm body weight). Hemolytic activity in mouse erythrocytes was performed, according to Jamialahmadi et al..
# [3] = Hemolytic activity in mice erythrocytes; type: cell-based, Mus musculus; conditions: male, Swiss albino, mouse, mouse erythrocyte suspension, 37°C, 2 h
# Method: as §2
# [4] = system: S. cerevisiae EG103 (SODWT); experiment: S. cerevisiae central disc test, oxidative damage, strain SODWT; type: cell-based, Saccharomyces cerevisiae
# Description: as §1
# [5] = system: S. cerevisiae strains (SODWT, Sod1Δ, Sod2Δ, Cat1Δ, Sod1/Sod2Δ, Cat1Δ/Sod1Δ); experiment: In vivo antioxidant (S. cerevisiae) test, all strains tested; type: cell-based, Saccharomyces cerevisiae
# Description: as §1
# [6] = system: S. cerevisiae EG118 (Sod1∆); experiment: S. cerevisiae central disc test, oxidative damage, strain Sod1∆; type: cell-based, Saccharomyces cerevisiae
# Description: as §1
# [7] = system: S. cerevisiae EG223 (Cat1∆); experiment: S. cerevisiae central disc test, oxidative damage, strain Cat1∆; type: cell-based, Saccharomyces cerevisiae
# Description: as §1
# [8] = system: S. cerevisiae EG133 (Sod1∆Sod2∆); experiment: S. cerevisiae central disc test, oxidative damage, strain Sod1∆Sod2∆; type: cell-based, Saccharomyces cerevisiae
# Description: as §1
# Artemia salina = Artemia salina bioassay (brine shrimp lethality bioassay)
# Method: This test was carried out with a slight modification, as described by Amaral et al.. Briefly, shrimp cysts were incubated in a small aquarium containing a brine solution (50 mg of cysts and 300 mL of brine) for 48 h with direct lighting. […] […] In the negative (NC) and positive (PC) control groups, saline solution and potassium dichromate (K2Cr2O7) were added, respectively. The concentration range used in the case of the PC group was 31.25 to 500 μg/mL.
molecule,measurement,setting,value
"CC(C)=CCC/C(C)=C\CO [Nerol, cis-3,7-dimethyl-2,6-octadien-1]",oxidative damage,[1]; 0.9 μg/mL,1.00 ± 0.28
same,oxidative damage,[1]; 1.8 μg/mL,3.00 ± 1.41
same,oxidative damage,[1]; 7.2 μg/mL,3.00 ± 1.41
same,oxidative damage,[1]; 14.4 μg/mL,3.00 ± 1.41
same,oxidative damage,[1]; 32 μg/mL,1.50 ± 0.70
same,oxidative damage,[1]; 64 μg/mL,2.50 ± 0.70
same,oxidative damage,[1]; 128 μg/mL,2.50 ± 0.70
same,oxidative damage,[1]; 3.6 mg/mL,2.50 ± 0.70
same,oxidative damage,[1]; 256 mg/mL,2.00 ± 1.41
same,oxidative damage,[1]; 500 mg/mL,2.00 ± 0.24
same,oxidative damage,[2]; 0.9 μg/mL,2.50 ± 2.10
same,oxidative damage,[2]; 1.8 μg/mL,2.50 ± 0.70
same,oxidative damage,[2]; 7.2 μg/mL,3.00 ± 1.41
same,oxidative damage,[2]; 14.4 μg/mL,3.00 ± 1.41
same,oxidative damage,[2]; 32 μg/mL,3.50 ± 0.70
same,oxidative damage,[2]; 64 μg/mL,3.00 ± 1.41
same,oxidative damage,[2]; 128 μg/mL,2.50 ± 0.70
same,oxidative damage,[2]; 256 μg/mL,3.00 ± 1.41
same,oxidative damage,[2]; 3.6 mg/mL,3.00 ± 1.41
same,oxidative damage,[2]; 500 mg/mL,2.50 ± 0.70
same,Hemolysis (%),mouse erythrocytes; 500 μg/mL,34.95 ± 4.74^∗ %
same,cytotoxic effects in the hemolysis test,mouse erythrocytes; 31.25–500 μg/mL,significant cytotoxic effects
same,"hemolysis at 2 h, 31.25 μg/mL","[3]; pH 7.4, 31.25 μg/mL",2.67 ± 0.35%
same,"hemolysis at 2 h, 62.5 μg/mL","[3]; pH 7.4, 62.5 μg/mL",4.49 ± 0.26%
same,"hemolysis at 2 h, 125 μg/mL","[3]; pH 7.4, 125 μg/mL",5.12 ± 1.05%
same,"hemolysis at 2 h, 250 μg/mL","[3]; pH 7.4, 250 μg/mL",6.54 ± 1.78%
same,"hemolysis at 2 h, 500 μg/mL","[3]; pH 7.4, 500 μg/mL",39.1%
same,oxidative damage,[4]; 0.9 μg/mL,1.50 ± 0.70
same,oxidative damage,[4]; 1.8 μg/mL,1.50 ± 0.70
same,oxidative damage,[4]; 7.2 μg/mL,2.00 ± 1.41
same,oxidative damage,[4]; 14.4 μg/mL,2.50 ± 0.70
same,oxidative damage,[4]; 32 μg/mL,2.00 ± 1.41
same,oxidative damage,[4]; 64 μg/mL,2.00 ± 1.41
same,oxidative damage,[4]; 128 μg/mL,1.00 ± 0.28
same,oxidative damage,[4]; 3.6 mg/mL,1.00 ± 0.28
same,oxidative damage,[4]; 256 mg/mL,2.00 ± 0.24
same,oxidative damage,[4]; 500 mg/mL,1.00 ± 0.28
same,percentage modulation of oxidative damage caused by the stressor H2O2,[5]; all strains and concentrations tested,more than 60%
same,induction of oxidative damage,"[5]; any concentration, any of the tested S. cerevisiae strains",did not induce oxidative damage
same,oxidative damage,[6]; 0.9 μg/mL,1.50 ± 0.70
same,oxidative damage,[6]; 1.8 μg/mL,2.00 ± 1.41
same,oxidative damage,[6]; 7.2 μg/mL,3.00 ± 1.41
same,oxidative damage,[6]; 14.4 μg/mL,2.50 ± 0.70
same,oxidative damage,[6]; 32 μg/mL,3.50 ± 0.70
same,oxidative damage,[6]; 64 μg/mL,1.50 ± 0.70
same,oxidative damage,[6]; 128 μg/mL,2.00 ± 1.41
same,oxidative damage,[6]; 3.6 mg/mL,2.50 ± 0.70
same,oxidative damage,[6]; 256 mg/mL,2.50 ± 0.70
same,oxidative damage,[6]; 500 mg/mL,2.00 ± 0.24
same,oxidative damage,[7]; 0.9 μg/mL,1.50 ± 0.70
same,oxidative damage,[7]; 1.8 μg/mL,2.50 ± 0.70
same,oxidative damage,[7]; 7.2 μg/mL,2.50 ± 0.70
same,oxidative damage,[7]; 14.4 μg/mL,3.00 ± 0.54
same,oxidative damage,[7]; 32 μg/mL,3.50 ± 0.70
same,oxidative damage,[7]; 64 μg/mL,3.00 ± 1.41
same,oxidative damage,[7]; 128 μg/mL,3.00 ± 1.41
same,oxidative damage,[7]; 3.6 mg/mL,4.00 ± 1.2
same,oxidative damage,[7]; 256 mg/mL,1.50 ± 0.70
same,oxidative damage,[7]; 500 mg/mL,2.50 ± 0.70
same,oxidative damage,[8]; 0.9 μg/mL,2.00 ± 1.41
same,oxidative damage,[8]; 1.8 μg/mL,2.50 ± 0.70
same,oxidative damage,[8]; 7.2 μg/mL,3.00 ± 1.41
same,oxidative damage,[8]; 14.4 μg/mL,3.00 ± 0.54
same,oxidative damage,[8]; 32 μg/mL,4.50 ± 0.70
same,oxidative damage,[8]; 64 μg/mL,2.50 ± 0.70
same,oxidative damage,[8]; 128 μg/mL,3.00 ± 1.41
same,oxidative damage,[8]; 3.6 mg/mL,2.50 ± 0.70
same,oxidative damage,[8]; 256 mg/mL,2.50 ± 0.70
same,oxidative damage,[8]; 500 mg/mL,2.50 ± 0.70
same,Artemia Salina mortality,"Artemia salina; 62.5 μg/mL, 48 h of exposure",100%
same,cytotoxic effects in the A. Salina test,Artemia salina; 31.25–500 μg/mL,significant cytotoxic effects
Triton X-100 [reference compound],Hemolysis (%),mouse erythrocytes; 31.25 μg/mL,100 ± 0.00^∗ %
same,Hemolysis (%),mouse erythrocytes; 62.5 μg/mL,100 ± 0.00^∗ %
same,Hemolysis (%),mouse erythrocytes; 125 μg/mL,100 ± 0.00^∗ %
same,Hemolysis (%),mouse erythrocytes; 250 μg/mL,100 ± 0.00^∗ %
same,Hemolysis (%),mouse erythrocytes; 500 μg/mL,100 ± 0.00^∗ %
